This note sets out measurements from patent US20230190871A1, “METHODS AND COMPOSITIONS FOR TREATMENT OF VIRAL INFECTIONS” (priority 2020, published 2023).

Like-named read-outs stand apart in the source and are kept apart here.

In data set [1] the test system is SARS CoV-2 (USA_WA1/2020). In kind it is cell-based.
The next data set deals with EGFP expression. Put plainly: doxycycline-induced EGFP reporter expression (microscopy / flow cytometry) in transduced Vero-E6 cells. In kind it is cell-based. In general terms: In flow cytometry, cells or beads pass a laser one at a time.
For data set [2], the system named is c19orf66 protein expression. The experiment in a line: doxycycline-induced c19orf66 protein expression by western blot in transduced Vero-E6 cells. In kind it is cell-based. The conditions noted are these: bulk sorted cells re-induced with 0, 0.8, 4, 20, 100 or 500 ng/mL. For orientation: A western blot detects proteins with antibodies after separation by electrophoresis.

The test system of a further data set is Vero E6 cells. The conditions noted are these: African green monkey; for Cell Health: cell death / Cell Health: cells death: 48 h.

For the compound “C19orf66: Chromosome 19 Open Reading Frame 66 protein, interferon-stimulated gene; here expressed from a doxycycline-inducible lentiviral construct”, in data set [1], the “number of infected cells (% infected cells)” value is recorded as “reduction” and the “viral inhibition relative to remdesivir control” value is on record as “comparable to remdesivir”.

On to `C[C@H]1c2cccc(O)c2C(=O)C2=C(O)[C@]3(O)C(=O)C(C(N)=O)=C(O)[C@@H](N(C)C)[C@@H]3[C@@H](O)[C@@H]21` [doxycycline], for which the “EGFP: doxycycline concentration at which EGFP is visible” value with EGFP expression (Bulk Sorted, 48 hours) was 10 ng/mL; in the data set on EGFP expression (Bulk Sorted, 96 hours), “Visible at ≧ 10 ng/mL”; in the data set on EGFP expression (Clone 9, 48 hours) it was “Visible at 10 ng/mL and higher concentrations”; with EGFP expression (Clone 9, 96 hours), “Visible at ≧ 10 ng/mL”; in the data set on EGFP expression (Clone 21, 48 hours), 5 ng/mL; in the data set with EGFP expression (Clone 21, 96 hours), “Visible at ≧ 10 ng/mL”. For the same compound, the “EGFP: doxycycline concentration giving strong signal” value is recorded as 20 ng/mL in the data set on EGFP expression (Bulk Sorted, 48 hours) and 10 ng/mL in the data set with EGFP expression (Clone 21, 48 hours). The “doxycycline concentration inducing c19orf66 (western blot)” value in data set [2] is “at least 20 ng/mL”. Besides, the “Cell Health: cell death” value in the data set on Vero E6 cells (10 ng/mL) is 50% cell death at 10 ng/mL and worse at higher concentrations; in the data set with Vero E6 cells (20 ng/mL), 50%. The “Cell Health: cells death” value is 20% with Vero E6 cells (50 ng/mL) and 40% with Vero E6 cells (100 ng/mL). Further, in the data set with Vero E6 cells (96 h), the “Cell Health: doxycycline concentration at which cell death is observed” value stood at 10 ng/mL.
